Experimental data published in patent US12195559B2, “CDCA1-derived peptide and vaccine containing same” (ONCOTHERAPY SCIENCE, INC., priority 2018, dated 2025).
Entries after “also recorded” stand apart in the source; their conditions may differ.

Experiments:
[1] = system: peptide-pulsed C1R-A01; assay: In vitro CTL induction, IFN-gamma ELISPOT assay; format: cell-based, human; conditions: CD8-positive T cells from HLA-A*01:01-positive donors stimulated with DCs pulsed with 20 micro-g/ml peptide, target C1R-A01 pulsed vs not pulsed
Experimental: C1R cells (C1R-A01) that constitutively express HLA-A*01:01 was used as cells for stimulating CTLs. A cDNA encoding the HLA-A*01:01 gene was amplified by PCR and introduced into an expression vector. C1R cells incorporated with HLA-A*01:01 gene expression vector were cultured for two weeks under drug selection with a medium containing G418 (Invitrogen). After diluting G418-resistant C1R cell suspension, the cells were seeded into a 96-well plate, and subjected to selective culture for another 30 days with a medium containing G418. The HLA-A*01:01 expression in C1R cells was verified by flow cytometric analysis.
Monocyte-derived dendritic cells (DCs) were used as the antigen-presenting cell to induce a cytotoxic T lymphocyte (CTL) specific to peptides presented on human leukocyte antigens (HLAs). DCs were prepared in vitro as already reported in the literature (Nakahara S et al., Cancer Res 2003, 63(14): 4112-8). Specifically, peripheral-blood mononuclear cells (PBMCs) collected from healthy volunteers (HLA-A*01:01-positive) with the Ficoll-Paque plus solution (Pharmacia) were seeded into plastic tissue culture dishes (Corning) to allow attachment of monocytes in PBMCs to the dishes. Then, the cells were cultured in the presence of 1000 IU/ml granulocyte macrophage colony-stimulating factor (R&D System) and 1000 IU/ml interleukin (IL)-4 (R&D System) for seven days. As medium, an AIM-V medium (Invitrogen) containing inactivated AB type serum (MP Biomedicals) was used (2% ABS/AIM-V medium). […] Peptide pulsing was performed in the AIM-V medium. These peptide-pulsed DCs were inactivated by X-ray irradiation (20 Gy), and mixed in a 1:20 ratio with autologous CD8-positive T cells obtained by using the CD8 Positive Isolation Kit (Invitrogen) (1.5×10^4 DCs and 3×10^5 CD8-positive T cells), and cultured in a 48-well plate (Corning). The volume of 2% ABS/AIM-V medium was 0.5 ml per 1 well, and IL-7 (R&D System) was added (final concentration: 10 ng/ml) to the well. Two days after the start of culture, IL-2 (Novartis) was added thereto (final concentration: 20 IU/ml). On 7th day of culture and 14th day of culture, CD8-positive T cells were further stimulated with peptide-pulsed DCs. The DCs were prepared before use by the same method as above. On 21st day or thereafter (after the third DC stimulation), IFN-gamma production of CD8-positive T cells against peptide-pulsed C1R-A01 was confirmed by enzyme-linked immunospot (ELISPOT) assay (Tanaka H et al., Br J Cancer 2001, 84(1): 94-9; Umano Y et al., Br J Cancer 2001, 84(8): 1052-7; Uchida N et al., Clin Cancer Res 2004, 10(24): 8577-86; Suda T et al., Cancer Sci 2006, 97(5): 411-9; Watanabe T et al., Cancer Sci 2005, 96(8): 498-506).
(§1) C1R-A01 pulsed with a peptide was prepared as target cells. The IFN-gamma ELISPOT assay and IFN-gamma ELISA were performed according to the procedures recommended by the assay kit manufacturer.

[2] = system: peptide-pulsed C1R-A01; assay: IFN-gamma ELISA of CTL clones established by limiting dilution; format: cell-based, human; conditions: CTL clones against peptide-pulsed vs non-pulsed target cells
Experimental: CTLs were propagated using a method similar to that reported by Riddell et al. (Walter E A et al., N Engl J Med 1995, 333(16): 1038-44; Riddell S R et al., Nat Med 1996, 2(2): 216-23). In a flask for tissue culture (FALCON), the CTLs were cultured in 5% ABS/AIM-V medium (culture solution volume: 25 ml/flask) with two types of human B lymphoblastoid cell lines (5×10^6 cells each) treated with mitomycin C and anti-CD3 antibody (BD biosciences, final concentration: 40 ng/ml). On the next day after the culturing was started, IL-2 was added to the culture (IL-2 final concentration: 120 IU/ml). On days 5, 8, and 11, the medium was changed to 5% ABS/AIM-V medium containing 60 IU/ml IL-2 (IL-2 final concentration: 30 IU/ml) (Tanaka H et al., Br J Cancer 2001, 84(1): 94-9; Umano Y et al., Br J Cancer 2001, 84(8): 1052-7; Uchida N et al., Clin Cancer Res 2004, 10(24): 8577-86; Suda T et al., Cancer Sci 2006, 97(5): 411-9; Watanabe T et al., Cancer Sci 2005, 96(8): 498-506).
After CTLs were induced in vitro, the CTLs were seeded at 1 cell/well or 10 cells/well in a 96-well round-bottomed microplate (Corning). The CTLs were cultured in 5% ABS/AIM-V medium (culture solution volume: […]) with two types of human B lymphoblastoid cell lines (1×10^4 cells each) treated with mitomycin C, anti-CD3 antibody (final concentration: 30 ng/ml), and IL-2 (final concentration: 125 IU/ml). After 10 days, […] of 5% ABS/AIM-V medium containing 500 IU/ml IL-2 was added to the culture.
as §1

[3] = system: COS7 cells expressing CDCA1 and HLA-A*01:01; assay: IFN-gamma production of CTL clone against target cells expressing CDCA1 and HLA-A*01:01; format: cell-based, African green monkey
Experimental: as §1
The cDNA encoding the CDCA1 or HLA-A*01:01 gene were amplified by PCR. Each PCR amplified product was incorporated into an expression vector. Using Lipofectamine 2000 (Invitrogen), either or both of the CDCA1 gene expression vector and the HLA-A*01:01 gene expression vector were introduced into COS7 cells, an HLA-negative cell line, according to the procedure recommended by the manufacturer. On the next day of the gene introduction, the COS7 cells were separated using Versene (Invitrogen) and used as target cells.

ARQEVVEKY (a peptide derived from CDCA1) [SEQ ID NO: 35, CDCA1-derived 9mer peptide, start position 268]
Peptide-specific IFN-gamma production (CTL induction) ([1]; listed as CDCA1-A01-9-268): Peptide-specific IFN-gamma production relative to the control well was observed; also recorded: able to induce CTLs that showed peptide-specific IFN-gamma production

DSPEKLKNY (a peptide derived from CDCA1) [SEQ ID NO: 34, CDCA1-derived 9mer peptide, start position 246]
Peptide-specific IFN-gamma production (CTL induction) ([1]; listed as CDCA1-A01-9-246): Peptide-specific IFN-gamma production relative to the control well was observed; also recorded: able to induce CTLs that showed peptide-specific IFN-gamma production

ETYMEFLWQY (a peptide derived from CDCA1) [SEQ ID NO: 8, CDCA1-derived 10mer peptide, start position 136]
Peptide-specific IFN-gamma production (CTL induction) ([1]; listed as CDCA1-A01-10-136): Peptide-specific IFN-gamma production relative to the control well was observed; also recorded: able to induce CTLs that showed peptide-specific IFN-gamma production
Peptide-specific IFN-gamma production of CTL clones ([2]; listed as CDCA1-A01-10-136): showed peptide-specific IFN-gamma production
IFN-gamma production of CTL clone against target cells ([3]; COS7 cells expressing both CDCA1 and HLA-A*01:01): showed IFN-gamma production
IFN-gamma production of CTL clone against negative control cells ([3]; COS7 cells expressing either CDCA1 or HLA-A*01:01, listed as CDCA1-A01-10-136): no significant IFN-gamma production was observed; also recorded: did not show significant IFN-gamma production

FREACRETY (a peptide derived from CDCA1) [SEQ ID NO: 33, CDCA1-derived 9mer peptide, start position 130]
Peptide-specific IFN-gamma production (CTL induction) ([1]; listed as CDCA1-A01-9-130): Peptide-specific IFN-gamma production relative to the control well was observed; also recorded: able to induce CTLs that showed peptide-specific IFN-gamma production

IYMRALQIVY (a peptide derived from CDCA1) [SEQ ID NO: 13, CDCA1-derived 10mer peptide, start position 48]
Peptide-specific IFN-gamma production (CTL induction) ([1]; listed as CDCA1-A01-10-48): Peptide-specific IFN-gamma production relative to the control well was observed; also recorded: able to induce CTLs that showed peptide-specific IFN-gamma production
Peptide-specific IFN-gamma production of CTL clones ([2]; listed as CDCA1-A01-10-48): showed peptide-specific IFN-gamma production

MMPVNSEVMY (a peptide derived from CDCA1) [SEQ ID NO: 9, CDCA1-derived 10mer peptide, start position 66]
Peptide-specific IFN-gamma production (CTL induction) ([1]; listed as CDCA1-A01-10-66): No IFN-gamma production; also recorded: peptide-specific IFN-gamma production was not observed

QLVQLYQK (QLEVQLYQK; a peptide derived from CDCA1) [SEQ ID NO: 25, CDCA1-derived 9mer peptide, start position 290]
Peptide-specific IFN-gamma production (CTL induction) ([1]; listed as CDCA1-A01-9-290): Peptide-specific IFN-gamma production relative to the control well was observed; also recorded: able to induce CTLs that showed peptide-specific IFN-gamma production

SCQLEVQLY (a peptide derived from CDCA1) [SEQ ID NO: 37, CDCA1-derived 9mer peptide, start position 288]
Peptide-specific IFN-gamma production (CTL induction) ([1]; listed as CDCA1-A01-9-288): Peptide-specific IFN-gamma production relative to the control well was observed; also recorded: able to induce CTLs that showed peptide-specific IFN-gamma production

VYGIRLEHFY (a peptide derived from CDCA1) [SEQ ID NO: 10, CDCA1-derived 10mer peptide, start position 56]
Peptide-specific IFN-gamma production (CTL induction) ([1]; listed as CDCA1-A01-10-56): Peptide-specific IFN-gamma production relative to the control well was observed; also recorded: able to induce CTLs that showed peptide-specific IFN-gamma production
Peptide-specific IFN-gamma production of CTL clones ([2]; listed as CDCA1-A01-10-56): showed peptide-specific IFN-gamma production

YMEFLWQY (a peptide derived from CDCA1) [SEQ ID NO: 1, CDCA1-derived 8mer peptide, start position 138]
Peptide-specific IFN-gamma production (CTL induction) ([1]; listed as CDCA1-A01-8-138): Peptide-specific IFN-gamma production relative to the control well was observed; also recorded: able to induce CTLs that showed peptide-specific IFN-gamma production
